In patent US12295936B2, “Immunomodulating urea azalides” (Zoetis Services LLC, priority 2020, dated 2025):
Read-outs that look alike come from different tables or passages of the source.

Experiments:
[1] = test system: BRD pathogens, M. haemolytica and P. multocida; test: MIC screening panel of BRD pathogens (antibacterial / non-antibacterial)
TNF-α = test: LPS-stimulated whole bovine blood assay, MSD cytokine detection; format: cell-based; conditions: LPS-stimulated bovine whole blood, read-out: TNF-α (IC50 μM)
Description: (§1) Therefore, a fresh whole bovine blood assay was developed with LPS as a stimulant (TLR-4 agonist) and with IL-1β and TNF-α as the read-out. Compounds of the invention were evaluated against a positive control for their ability to inhibit LPS-induced IL-1β and TNF-α as an overall evaluation of relative potency and modulation of target pathways (Table 6).
In the bovine whole blood in vitro screening assay the inhibition of TNFα as induced by stimulation by lipopolysaccharide (LPS) and as measured by half the maximal inhibitory concentration (IC50) is recognized as the primary biomarker of immunomodulation potency upon pretreatment with the compounds of the invention. IL-1β is a mediator of the inflammation response and is involved in a number of cellular activities including proliferation, differentiation and apoptosis. IL-1β is also released upon cellular stress or cytotoxicity or upon TLR stimulation. In the bovine whole blood assay the stimulation of IL-1β release upon increasing concentration of test compound is seen as a potential cellular toxicity signal as induced by the test compound. In order to estimate a therapeutic index from the in vitro assay a differential between the TNFα IC50 (immunomodulation potency) versus the perceived cellular toxicity concentration (IL-1β release or overstimulation) was utilized.

IL-1β = test: as above; format: cell-based; conditions: overstimulation of IL-1β, LPS-stimulated bovine whole blood
Description: as §1, with “The effect of multiple cytokines was not easily quantified using single cell types. Therefore,” for “Therefore,”
In order to correlate RNA sequencing data to cytokine changes the whole blood assay was utilized. […] The enhancement result represents an overall stimulation of cytokine levels due to cellular stress or potential toxicity with increasing concentrations of the compound, representing a typical bell shape response curve for immunomodulatory activity.
In the bovine whole blood in vitro screening assay the inhibition of TNFα as induced by stimulation by lipopolysaccharide (LPS) and as measured by half the maximal inhibitory concentration (IC50) is recognized as the primary biomarker of immunomodulation potency upon pretreatment with the compounds of the invention.

[2] = read-out: antibacterial / non-antibacterial (MIC for the BRD pathogens)

Row | SMILES | MIC ([1]; read-out: MIC ≤64 μg/mL for at least one of the bacterial strains (flag * at Ex #)) [µg/mL] | IC50 (TNF-α; Bos taurus) [µM] | IL-1β OS of LPS (IL-1β) [µM] | MIC [1, 2] [µg/mL] | IC50 (TNF-α) [µM]
1 | CC[C@H]1OC(=O)[C@H](C)[C@@H](O[C@H]2C[C@@](C)(OC)[C@](O)(CN3CCc4ccccc4C3)[C@H](C)O2)[C@H](C)[C@@H](O[C@@H]2O[C@H](C)C[C@H](N(C)C(=O)N(C)c3ccccc3)[C@H]2O)[C@](C)(O)C[C@@H](C)CN[C@H](C)[C@@H](O)[C@]1(C)O [Example J-25, 1-((2S,3R,4S,6R)-2-(((2R,3S,4R,5R,8R,10R,11R,12S,13S,14R)-13-(((2R,4R,5S,6S)-5-((3,4-dihydroisoquinolin-2(1H)-yl)methyl)-5-hydroxy-4-methoxy-4,6-dimethyltetrahydro-2H-pyran-2-yl)oxy)-2-ethyl-3,4,10-trihydroxy-3,5,8,10,12,14-hexamethyl-15-oxo-1-oxa-6-azacyclopentadecan-11-yl)oxy)-3-hydroxy-6-methyltetrahydro-2H-pyran-4-yl)-1,3-dimethyl-3-phenylurea] | < 64 | 6 | 16 |  | 
2 | CC[C@H]1OC(=O)[C@H](C)[C@@H](O[C@H]2C[C@@](C)(OC)[C@](O)(CN3Cc4nccnc4C3)[C@H](C)O2)[C@H](C)[C@@H](O[C@@H]2O[C@H](C)C[C@H](N(C)C(=O)N(C)c3ccccc3)[C@H]2O)[C@](C)(O)C[C@@H](C)CN[C@H](C)[C@@H](O)[C@]1(C)O [Example J-16, 1-((2S,3R,4S,6R)-2-(((2R,3S,4R,5R,8R,10R,11R,12S,13S,14R)-13-(((2R,4R,5S,6S)-5-((5,7-dihydro-6H-pyrrolo[3,4-b]pyrazin-6-yl)methyl)-5-hydroxy-4-methoxy-4,6-dimethyltetrahydro-2H-pyran-2-yl)oxy)-2-ethyl-3,4,10-trihydroxy-3,5,8,10,12,14-hexamethyl-15-oxo-1-oxa-6-azacyclopentadecan-11-yl)oxy)-3-hydroxy-6-methyltetrahydro-2H-pyran-4-yl)-1,3-dimethyl-3-phenylurea] |  | 60 | 40 | > 64 | 
3 | CCCNC[C@]1(O)[C@H](C)O[C@@H](O[C@H]2[C@H](C)[C@@H](O[C@@H]3O[C@H](C)C[C@H](N(C)C(=O)Nc4ccc(C#N)cc4)[C@H]3O)[C@](C)(O)C[C@@H](C)CN[C@H](C)[C@@H](O)[C@](C)(O)[C@@H](CC)OC(=O)[C@@H]2C)C[C@@]1(C)OC [Example H-77, 3-(4-cyanophenyl)-1-((2S,3R,4S,6R)-2-(((2R,3S,4R,5R,8R,10R,11R,12S,13S,14R)-2-ethyl-3,4,10-trihydroxy-13-(((2R,4R,5S,6S)-5-hydroxy-4-methoxy-4,6-dimethyl-5-((propylamino)methyl)tetrahydro-2H-pyran-2-yl)oxy)-3,5,8,10,12,14-hexamethyl-15-oxo-1-oxa-6-azacyclopentadecan-11-yl)oxy)-3-hydroxy-6-methyltetrahydro-2H-pyran-4-yl)-1-methylurea] |  | 30 | 200 | > 64 | 
4 | CCCNC[C@]1(O)[C@H](C)O[C@@H](O[C@H]2[C@H](C)[C@@H](O[C@@H]3O[C@H](C)C[C@H](N(C)C(=O)N4CCc5ccccc54)[C@H]3O)[C@](C)(O)C[C@@H](C)CN[C@H](C)[C@@H](O)[C@](C)(O)[C@@H](CC)OC(=O)[C@@H]2C)C[C@@]1(C)OC [Example I-3, N-((2S,3R,4S,6R)-2-(((2R,3S,4R,5R,8R,10R,11R,12S,13S,14R)-2-ethyl-3,4,10-trihydroxy-13-(((2R,4R,5S,6S)-5-hydroxy-4-methoxy-4,6-dimethyl-5-((propylamino)methyl)tetrahydro-2H-pyran-2-yl)oxy)-3,5,8,10,12,14-hexamethyl-15-oxo-1-oxa-6-azacyclopentadecan-11-yl)oxy)-3-hydroxy-6-methyltetrahydro-2H-pyran-4-yl)-N-methylindoline-1-carboxamide] |  | 40 | 32 |  | 
5 | CC[C@H]1OC(=O)[C@H](C)[C@@H](O[C@H]2C[C@@](C)(OC)[C@](C)(O)[C@H](C)O2)[C@H](C)[C@@H](O[C@@H]2O[C@H](C)C[C@H](N(C)C(=O)N(C)c3ccccc3)[C@H]2O)[C@](C)(O)C[C@@H](C)CN[C@H](C)[C@@H](O)[C@]1(C)O [Example B-1a, 1-((2S,3R,4S,6R)-2-(((2R,3S,4R,5R,8R,10R,11R,12S,13S,4R)-2-ethyl-3,4,10-trihydroxy-13-(((2R,4R,5R,6S)-5-hydroxy-4-methoxy-4,5,6-trimethyltetrahydro-2H-pyran-2-yl)oxy)-3,5,8,10,12,14-hexamethyl-11S-oxo-1-oxa-6-azacyclopentadecan-11-yl)oxy)-3-hydroxy-6-methyltetrahydro-2H-pyran-4-yl)-1,3-dimethyl-3-phenylurea] |  |  | 40 |  | 32
6 | CCCNC[C@]1(O)[C@H](C)O[C@@H](O[C@H]2[C@H](C)[C@@H](O[C@@H]3O[C@H](C)C[C@H](N(C)C(=O)N(C)c4cnccn4)[C@H]3O)[C@](C)(O)C[C@@H](C)CN[C@H](C)[C@@H](O)[C@](C)(O)[C@@H](CC)OC(=O)[C@@H]2C)C[C@@]1(C)OC [Example H-46, 1-((2S,3R,4S,6R)-2-(((2R,3S,4R,5R,8R,10R,11R,12S,13S,14R)-2-ethyl-3,4,10-trihydroxy-13-(((2R,4R,5S,6S)-5-hydroxy-4-methoxy-4,6-dimethyl-5-((propylamino)methyl)tetrahydro-2H-pyran-2-yl)oxy)-3,5,8,10,12,14-hexamethyl-15-oxo-1-oxa-6-azacyclopentadecan-11-yl)oxy)-3-hydroxy-6-methyltetrahydro-2H-pyran-4-yl)-1,3-dimethyl-3-(pyrazin-2-yl)urea] |  | > 250 | 100 |  | 
7 | CCCNC[C@]1(O)[C@H](C)O[C@@H](O[C@H]2[C@H](C)[C@@H](O[C@@H]3O[C@H](C)C[C@H](N(C)C(=O)N(C)c4cc(C)nc(C)n4)[C@H]3O)[C@](C)(O)C[C@@H](C)CN[C@H](C)[C@@H](O)[C@](C)(O)[C@@H](CC)OC(=O)[C@@H]2C)C[C@@]1(C)OC [Example H-57, 1-(2,6-dimethylpyrimidin-4-yl)-3-((2S,3R,4S,6R)-2-(((2R,3S,4R,5R,8R,10R,11R,12S,13S,14R)-2-ethyl-3,4,10-trihydroxy-13-(((2R,4R,5S,6S)-5-hydroxy-4-methoxy-4,6-dimethyl-5-((propylamino)methyl)tetrahydro-2H-pyran-2-yl)oxy)-3,5,8,10,12,14-hexamethyl-15-oxo-1-oxa-6-azacyclopentadecan-11-yl)oxy)-3-hydroxy-6-methyltetrahydro-2H-pyran-4-yl)-1,3-dimethylurea] |  |  |  | > 64 | 
8 | CCCNC[C@]1(O)[C@H](C)O[C@@H](O[C@H]2[C@H](C)[C@@H](O[C@@H]3O[C@H](C)C[C@H](N(C)C(=O)N(CC)c4ccccc4)[C@H]3O)[C@](C)(O)C[C@@H](C)CN[C@H](C)[C@@H](O)[C@](C)(O)[C@@H](CC)OC(=O)[C@@H]2C)C[C@@]1(C)OC [Example H-16, 1-ethyl-3-((2S,3R,4S,6R)-2-(((2R,3S,4R,5R,8R,10R,11R,12S,13S,14R)-2-ethyl-3,4,10-trihydroxy-13-(((2R,4R,5S,6S)-5-hydroxy-4-methoxy-4,6-dimethyl-5-((propylamino)methyl)tetrahydro-2H-pyran-2-yl)oxy)-3,5,8,10,12,14-hexamethyl-15-oxo-1-oxa-6-azacyclopentadecan-11-yl)oxy)-3-hydroxy-6-methyltetrahydro-2H-pyran-4-yl)-3-methyl-1-phenylurea] |  |  |  | > 64 | 
9 | CCCNC[C@]1(O)[C@H](C)O[C@@H](O[C@H]2[C@H](C)[C@@H](O[C@@H]3O[C@H](C)C[C@H](N(C)C(=O)N(C)c4ncccn4)[C@H]3O)[C@](C)(O)C[C@@H](C)CN[C@H](C)[C@@H](O)[C@](C)(O)[C@@H](CC)OC(=O)[C@@H]2C)C[C@@]1(C)OC [Example H-49, 1-((2S,3R,4S,6R)-2-(((2R,3S,4R,5R,8R,10R,11R,12S,13S,14R)-2-ethyl-3,4,10-trihydroxy-13-(((2R,4R,5S,6S)-5-hydroxy-4-methoxy-4,6-dimethyl-5-((propylamino)methyl)tetrahydro-2H-pyran-2-yl)oxy)-3,5,8,10,12,14-hexamethyl-15-oxo-1-oxa-6-azacyclopentadecan-11-yl)oxy)-3-hydroxy-6-methyltetrahydro-2H-pyran-4-yl)-1,3-dimethyl-3-(pyrimidin-2-yl)urea] |  |  |  | > 64 | 
